The subject of data set [1] is S. aureus. Nature of the data set: standard tube assay for antibacterial activity, nutrient broth. It is filed as cell-based, Staphylococcus aureus. How it is done:
(§1) Acanthomycin was tested for antibacterial activity in a standard tube assay using nutrient broth as the medium. The minimum inhibitory concentration in mcg/ml against S. aureus was 50, and against S. lutea it was 25. Additional testing on a standard disc (12.7 mm) plate assay gave the following results: […]

The subject of the next data set is S. lutea. The description is as above. The class given is cell-based, Sarcina lutea. How it is done: as §1
Another data set concerns Bacillus cereus. Description: standard disc (12.7 mm) plate assay. The class given is cell-based. How it is done: (§2) Acanthomycin was tested for antibacterial activity in a standard tube assay using nutrient broth as the medium. The minimum inhibitory concentration in mcg/ml against S. aureus was 50, and against S. lutea it was 25. Additional testing on a standard disc (12.7 mm) plate assay gave the following results:
(§3) The fermentation can be monitored by a disc-plate assay using B. subtilis as the test organism and deionized H2 O as diluent. A unit volume (0.08 ml) of solution containing the substance to be assayed is placed on a 12.7 mm paper disc which is then placed on an agar plate seeded with the assay organism. The agar plate is then incubated for 16 to 18 hours at 32° to 37° C. A biounit (BU) is defined as the concentration of the antibiotic which gives a 20 mm zone of inhibition under the standard assay conditions. Thus, if for example a fermentation beer has to be diluted 1/100 to give a 20 mm zone of inhibition, the potency of such beer is 100 BU/ml.

A further data set has as its system Bacillus subtilis. Nature of the data set: standard disc (12.7 mm) plate assay. It is filed as cell-based. On the procedure:
as §2, §3

The test system of another data set is Sarcina lutea. Description: standard disc (12.7 mm) plate assay. It is filed as cell-based. How it is done:
as §2, §3

In the next data set the test system is Staphylococcus aureus. Description: standard disc (12.7 mm) plate assay. The class given is cell-based. How it is done:
as §2, §3

The next data set deals with Streptococcus pyogenes. Nature of the data set: standard disc (12.7 mm) plate assay. The class given is cell-based. How it is done:
as §2, §3

The next data set relates to S. pyogenese. Description: in vivo protection of S. pyogenes infected mice. The following applies: administered subcutaneously.
Data set [2] deals with S. aureus. Nature of the data set: in vivo protection of S. aureus infected mice. How it is done: Acanthomycin was also tested in vivo in standard laboratory mice. […] Against S. aureus infected mice the CD50 was 1.0 mg/kg.
A further data set can be described thus: Solubilities. The class given is physicochemical.
The mark [3] stands for this setting: free acid, slightly soluble, ca.

Consider acanthomycin, for which the minimum inhibitory concentration worked out at 50 µg/mL in the data set with S. aureus [1] and 25 µg/mL in the data set on S. lutea. The Zone in the data set on Bacillus cereus (0.31 mg/ml) turned out to be 17 mm; in the data set on Bacillus cereus (0.62 mg/ml) it was 20 mm; in the data set on Bacillus cereus (1.25 mg/ml), 21 mm; with Bacillus cereus (2.5 mg/ml), 23 mm; in the data set with Bacillus cereus (5 mg/ml), 25 mm; in the data set with Bacillus cereus (10 mg/ml), 26 mm. The Zone with Bacillus subtilis (0.31 mg/ml) is 26 mm; with Bacillus subtilis (0.62 mg/ml), 28 mm; in the data set on Bacillus subtilis (1.25 mg/ml), 30 mm; in the data set on Bacillus subtilis (2.5 mg/ml) it was 31.5 mm; in the data set with Bacillus subtilis (5 mg/ml) it was 33 mm; in the data set on Bacillus subtilis (10 mg/ml), 34 mm. Also, the Zone in the data set on Sarcina lutea (0.31 mg/ml) worked out at 25 mm; with Sarcina lutea (0.62 mg/ml) it was 27 mm; in the data set on Sarcina lutea (1.25 mg/ml), 30 mm; with Sarcina lutea (2.5 mg/ml), 32 mm; in the data set on Sarcina lutea (5 mg/ml) it was 34 mm; in the data set with Sarcina lutea (10 mg/ml), 35 mm. Besides, the Zone in the data set on Staphylococcus aureus (0.31 mg/ml) turned out to be 22.5 mm; with Staphylococcus aureus (0.62 mg/ml), 24.5 mm; with Staphylococcus aureus (1.25 mg/ml), 26.5 mm; in the data set with Staphylococcus aureus (2.5 mg/ml) it was 28 mm; in the data set on Staphylococcus aureus (5 mg/ml), 28.5 mm; with Staphylococcus aureus (10 mg/ml) it was 29.5 mm. The Zone amounted to 34 mm with Streptococcus pyogenes (0.31 mg/ml); 36.5 mm in the data set on Streptococcus pyogenes (0.62 mg/ml); 38.5 mm with Streptococcus pyogenes (1.25 mg/ml); 40 mm in the data set with Streptococcus pyogenes (2.5 mg/ml); 40 mm in the data set with Streptococcus pyogenes (5 mg/ml); 41.5 mm in the data set with Streptococcus pyogenes (10 mg/ml). For the same substance, in the data set with Bacillus subtilis (statement in words), the “activity against B. subtilis” value was “active”. Moreover, in the data set with Staphylococcus aureus (statement in words), the “activity against S. aureus” value is listed as “active”. Moreover, the CD50 in the data set with S. pyogenese was 0.23 (0.17-0.31) mg/kg; in the data set on S. aureus [2], 1.0 mg/kg. For the same substance, the solubility in dimethylformamide entry in the data set “Solubilities” (free acid) is on record as “soluble”. In “Solubilities” (free acid), the solubility in dimethylsulfoxide entry is recorded as “soluble”. Besides, the solubility in ether result in “Solubilities” (free acid) was “relatively insoluble”. Also, the “solubility in halogenated hydrocarbon solvents” value in the data set “Solubilities” (free acid) is reported as “relatively insoluble”. The “solubility in saturated hydrocarbon solvents” value in the data set “Solubilities” (free acid) was “relatively insoluble”. The solubility in water result in the data set “Solubilities” (free acid) is “relatively insoluble”. The solubility in ethanol in “Solubilities” (setting [3]) lay within 1000 to 2000 µg/mL. In “Solubilities” (setting [3]), this substance came in with a solubility in methanol of 1000 to 2000 µg/mL.

Regarding acanthomycin ammonium salt, in “Solubilities” (salts (ammonium and sodium)), the “solubility in lower alcohols” value is given as “soluble” and the solubility in water entry is on record as “soluble”.

For the origin of these results see US4259450A, “Antibiotic acanthomycin and process for preparing” (The Upjohn Company, priority 1977, dated 1981).
